17 compounds from PubChem BioAssay (NCI) can be followed below.

Each structure is given as a SMILES string. “And” between values parts separate entries of the source, which are not always exact repeats. Equal values may be shown once.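 In this assay, cells in 96-well plates receive the compound at five concentrations for 48 hours. Endpoints are linearly interpolated between the surrounding concentrations. The concentration for 50% growth inhibition is given as GI50. TGI denotes the concentration required for complete inhibition of growth.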 Where only a bound is given, the exact number is not on record here.

Among the test systems are SNB-78 CNS; DLD-1 colon; XF 498 CNS; KM20L2 colon; HOP-18 NSCLC; DMS 273 small cell lung; LXFL 529 NSCLC; DMS 114 small cell lung.
Common to all, as to assay: NCI tumour cell line growth inhibition, 48 h

Take `CCN1CCC(O)(c2ccc(Cl)cc2)C(C(=O)c2ccc(Cl)cc2)C1` (configuration not stated): the TGI is more than 100 µM in the assay on SNB-78 CNS; more than 100 µM in the assay with DLD-1 colon; more than 100 µM with XF 498 CNS; more than 100 µM in the assay on KM20L2 colon; 95.9 µM in the assay with HOP-18 NSCLC; more than 100 µM in the assay on DMS 273 small cell lung. For the same compound, the TGI with LXFL 529 NSCLC was more than 100 µM.

In the case of `CCOC(=O)c1[nH]c(COC(C)=O)c2c1CCCCCCCCCC2`, the TGI in the assay with SNB-78 CNS, with DLD-1 colon, with XF 498 CNS, with KM20L2 colon, in the assay with HOP-18 NSCLC and in the assay on DMS 114 small cell lung was more than 100 µM throughout. Moreover, the TGI with DMS 273 small cell lung and in the assay with LXFL 529 NSCLC was more than 100 µM each time.

Regarding `CCN(CC)c1ccc(N=Nc2ccc(-c3nc4ccc[n+](C)c4o3)cc2)cc1`, the TGI in the assay with SNB-78 CNS is 32.6 µM; with DLD-1 colon, 20.1 µM; in the assay with XF 498 CNS it was 23.5 µM; with KM20L2 colon it was 25.9 µM; in the assay on HOP-18 NSCLC it was 38.3 µM; in the assay on DMS 114 small cell lung, 15.8 µM. Besides, the TGI with DMS 273 small cell lung came to 23.3 µM; with LXFL 529 NSCLC it was 16.7 µM.

For the compound `S=P(N1CC1)(N1CC1)N1CC1`, the GI50 with SNB-78 CNS was 46.1 µM; in the assay on DLD-1 colon it was 33.2 µM; with XF 498 CNS it was 13.2 µM; in the assay on KM20L2 colon, 30 µM; with HOP-18 NSCLC it was 41.5 µM; in the assay with DMS 114 small cell lung, 5.78 µM. The values for the GI50 in the assay on DMS 273 small cell lung and with LXFL 529 NSCLC were 2.76 µM and 21.9 µM, respectively. Besides, the TGI in the assay on SNB-78 CNS is 960 µM; in the assay with DLD-1 colon, 77.2 µM and 682 µM; in the assay on XF 498 CNS, 35.8 µM and 230 µM; with KM20L2 colon it was 62 µM and 464 µM; with HOP-18 NSCLC, 640 µM; with DMS 114 small cell lung, 36.1 µM and 249 µM. The TGI with DMS 273 small cell lung is 37.1 µM and 290 µM; with LXFL 529 NSCLC, 40 µM and 314 µM.

In the case of `C=C(c1ccccc1)[C@@]1(O)CC[C@@H]1N(CC#N)Cc1ccccc1`, the TGI with SNB-78 CNS is more than 85.2 µM; in the assay on DLD-1 colon it was 36.4 µM; with KM20L2 colon, more than 100 µM; with HOP-18 NSCLC, 28 µM; in the assay on DMS 114 small cell lung, 34.3 µM; in the assay on DMS 273 small cell lung it was 39.7 µM. Moreover, in the assay with LXFL 529 NSCLC, the TGI was determined as 29.5 µM.

Take `Cn1cc2ccccc2c1-c1nc(F)nc(OCC(=O)[C@H]2CCC3[C@@H]4CCC5=CC(=O)CC[C@]5(C)C4[C@@H](O)C[C@@]32C)n1` (some centres not stated): the TGI in the assay with SNB-78 CNS is 47.3 µM; in the assay on DLD-1 colon it was 22.5 µM; in the assay on XF 498 CNS it was 21.9 µM; in the assay with KM20L2 colon it was more than 57 µM; with HOP-18 NSCLC it was 29.2 µM; in the assay with DMS 114 small cell lung it was 22.5 µM. The TGI with DMS 273 small cell lung worked out at 36.1 µM; with LXFL 529 NSCLC, 9.59 µM.

Take `Cc1cc2c([nH]c3ccccc32)c2c1OC(C)(C)C1C3CC(C)(C)Oc4c(C)cc5c6ccccc6n(c5c43)C21` (configuration not stated): the TGI in the assay on SNB-78 CNS, with KM20L2 colon, with HOP-18 NSCLC, in the assay on DMS 114 small cell lung, in the assay with DMS 273 small cell lung and in the assay with LXFL 529 NSCLC was more than 100 µM throughout.

For the compound `N#CC1CCCCCCCCCCC(=O)N(CCCl)C1=O` (configuration not stated), the TGI in the assay on SNB-78 CNS, in the assay on DLD-1 colon, with XF 498 CNS, in the assay with KM20L2 colon, in the assay on DMS 114 small cell lung and with DMS 273 small cell lung was more than 100 µM each time. The compound further had a TGI in the assay with LXFL 529 NSCLC of more than 100 µM.

Regarding `CN(C)CC/[N+]([O-])=C(/c1ccccc1)C12CC3CC(CC(C3)C1)C2`, the TGI with SNB-78 CNS is 41.8 µM; with DLD-1 colon, 32 µM; in the assay with XF 498 CNS it was 25.9 µM; in the assay on KM20L2 colon, 24.5 µM; in the assay on HOP-18 NSCLC, 35.6 µM; in the assay on DMS 114 small cell lung, 36 µM. Further, the TGI with LXFL 529 NSCLC was found to be 39.1 µM.

For `Cn1cc(C(=O)C[n+]2ccccc2)c2ccccc21`, the TGI in the assay with DLD-1 colon, in the assay on XF 498 CNS, in the assay on KM20L2 colon, in the assay with DMS 114 small cell lung and in the assay on DMS 273 small cell lung was more than 100 µM each time.

In the case of `COc1ccc(OCC(=O)O)c(C(=O)CCC(=O)O)c1`, the TGI in the assay with SNB-78 CNS, in the assay with DLD-1 colon, in the assay on XF 498 CNS, in the assay with DMS 114 small cell lung, in the assay on DMS 273 small cell lung and with LXFL 529 NSCLC was more than 100 µM throughout.

As to `CC(C)OP(=O)(NC(=S)c1ccccc1)OC(C)C`, the TGI in the assay with SNB-78 CNS, in the assay on DLD-1 colon, with XF 498 CNS, with KM20L2 colon, in the assay with DMS 114 small cell lung and with DMS 273 small cell lung was more than 100 µM in each case. In the assay on LXFL 529 NSCLC, the TGI is more than 100 µM.

As to `CC(C)CC(NC(=O)OC(C)(C)C)C(=O)Nc1ccc(Nc2nc(F)nc(-c3c4ccccc4cn3C)n2)cc1` (configuration not stated), the TGI was more than 68 µM in the assay with SNB-78 CNS; more than 58 µM in the assay with DLD-1 colon; more than 100 µM in the assay with XF 498 CNS; more than 100 µM with KM20L2 colon; more than 100 µM with HOP-18 NSCLC; more than 72.4 µM in the assay with DMS 114 small cell lung. For the same compound, the TGI in the assay on DMS 273 small cell lung and with LXFL 529 NSCLC was more than 100 µM each time.

For `CC1(C)C2C=CC1C(=O)CC2` (configuration not stated), the TGI in the assay on SNB-78 CNS, in the assay on DLD-1 colon, with XF 498 CNS, in the assay with KM20L2 colon, in the assay with HOP-18 NSCLC and in the assay on DMS 273 small cell lung was more than 100 µM each time. The compound further registered a TGI with LXFL 529 NSCLC of more than 100 µM.

Consider `CC(=O)OCC1OC(n2c(-c3ccc(C)cc3)cc(-c3ccccc3)c(C#N)c2=O)C(OC(C)=O)C(OC(C)=O)C1OC(C)=O` (configuration not stated), for which the TGI in the assay with SNB-78 CNS, in the assay with DLD-1 colon, with XF 498 CNS, with KM20L2 colon, with DMS 114 small cell lung and in the assay with LXFL 529 NSCLC was more than 100 µM in each case.

In the case of `O=c1cccccc1[O-].O=c1cccccc1[O-].O=c1cccccc1[O-].[La+3]`, the GI50 is 10.5 µM in the assay with SNB-78 CNS, 22.7 µM in the assay on DLD-1 colon, 17 µM in the assay with KM20L2 colon and 5.98 µM in the assay on DMS 273 small cell lung. The TGI was 86.9 µM with SNB-78 CNS, more than 100 µM in the assay on DLD-1 colon, more than 100 µM in the assay on KM20L2 colon and more than 100 µM with DMS 273 small cell lung.

Take `Cc1cc2c(C)nn(Cc3ccc(Cl)cc3)c2c(C#N)c1C`: the TGI with SNB-78 CNS, in the assay with XF 498 CNS, in the assay with KM20L2 colon, with HOP-18 NSCLC, in the assay with DMS 273 small cell lung and in the assay with LXFL 529 NSCLC was more than 100 µM in each case.
